Experimental findings from ChEMBL document CHEMBL1146270, “Identification of potent and selective TACE inhibitors via the S1 pocket” (Bioorg Med Chem Lett, 2007) are described below.

The structures appear in SMILES notation.

Assay [1] deals with T1, Disintegrin and metalloproteinase domain-containing protein 17 (Homo sapiens, UniProt P78536). Briefly: Inhibition of TACE.
Assay [2] concerns the target 72 kDa type IV collagenase (Homo sapiens, UniProt P08253). Briefly: Inhibition of MMP2.
A further assay addresses Collagenase 3 (Homo sapiens, UniProt P45452).
A further assay deals with Stromelysin-1 (Homo sapiens, UniProt P08254). Briefly: Inhibition of MMP3.
Assay [3] concerns the target Matrix metalloproteinase-9 (Homo sapiens, UniProt P14780). Description: Inhibition of MMP9.
Assay [4] addresses Matrix metalloproteinase-14 (Homo sapiens, UniProt P50281). Briefly: Inhibition of MMP14.
A further assay addresses T2, Interstitial collagenase (Homo sapiens, UniProt P03956).
T2 sequence (P03956 whole entry): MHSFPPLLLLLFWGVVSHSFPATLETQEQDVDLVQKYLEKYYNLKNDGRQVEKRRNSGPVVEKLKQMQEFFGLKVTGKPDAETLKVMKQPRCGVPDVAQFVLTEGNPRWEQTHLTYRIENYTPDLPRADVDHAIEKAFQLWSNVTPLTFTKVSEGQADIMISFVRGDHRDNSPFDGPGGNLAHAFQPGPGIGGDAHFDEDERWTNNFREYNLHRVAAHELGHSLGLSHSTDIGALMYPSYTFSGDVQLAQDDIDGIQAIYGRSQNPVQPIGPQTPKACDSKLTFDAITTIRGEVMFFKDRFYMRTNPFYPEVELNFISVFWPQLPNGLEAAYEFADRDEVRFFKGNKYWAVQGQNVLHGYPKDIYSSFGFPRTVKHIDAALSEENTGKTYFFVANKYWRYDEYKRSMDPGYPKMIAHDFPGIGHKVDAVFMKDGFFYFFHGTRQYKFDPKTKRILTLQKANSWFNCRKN
Description: Inhibition of MMP1.

The target in assay [5] is T1, Disintegrin and metalloproteinase domain-containing protein 17.
Description: Inhibition of TACE in human whole blood assay

Chain of Matrix metalloproteinase-9 (P14780 whole entry): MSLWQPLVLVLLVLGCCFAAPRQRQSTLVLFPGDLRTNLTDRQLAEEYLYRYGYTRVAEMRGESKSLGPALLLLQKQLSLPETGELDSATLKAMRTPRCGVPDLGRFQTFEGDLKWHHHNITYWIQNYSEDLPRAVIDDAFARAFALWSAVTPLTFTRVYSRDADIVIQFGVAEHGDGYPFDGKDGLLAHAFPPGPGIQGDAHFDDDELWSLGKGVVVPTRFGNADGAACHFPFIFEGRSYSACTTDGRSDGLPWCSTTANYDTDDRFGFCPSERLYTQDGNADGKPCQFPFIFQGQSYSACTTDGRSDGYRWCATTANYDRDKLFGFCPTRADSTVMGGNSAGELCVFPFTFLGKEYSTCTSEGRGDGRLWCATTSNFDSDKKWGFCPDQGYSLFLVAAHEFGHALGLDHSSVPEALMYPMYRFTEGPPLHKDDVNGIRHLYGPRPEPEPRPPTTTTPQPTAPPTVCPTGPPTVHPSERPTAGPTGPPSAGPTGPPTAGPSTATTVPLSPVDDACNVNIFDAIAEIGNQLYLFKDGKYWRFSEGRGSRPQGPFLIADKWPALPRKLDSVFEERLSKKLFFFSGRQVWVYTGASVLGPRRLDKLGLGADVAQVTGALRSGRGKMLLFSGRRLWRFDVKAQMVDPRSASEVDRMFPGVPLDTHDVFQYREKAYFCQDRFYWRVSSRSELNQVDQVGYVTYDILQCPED
Chain of 72 kDa type IV collagenase (P08253 whole entry): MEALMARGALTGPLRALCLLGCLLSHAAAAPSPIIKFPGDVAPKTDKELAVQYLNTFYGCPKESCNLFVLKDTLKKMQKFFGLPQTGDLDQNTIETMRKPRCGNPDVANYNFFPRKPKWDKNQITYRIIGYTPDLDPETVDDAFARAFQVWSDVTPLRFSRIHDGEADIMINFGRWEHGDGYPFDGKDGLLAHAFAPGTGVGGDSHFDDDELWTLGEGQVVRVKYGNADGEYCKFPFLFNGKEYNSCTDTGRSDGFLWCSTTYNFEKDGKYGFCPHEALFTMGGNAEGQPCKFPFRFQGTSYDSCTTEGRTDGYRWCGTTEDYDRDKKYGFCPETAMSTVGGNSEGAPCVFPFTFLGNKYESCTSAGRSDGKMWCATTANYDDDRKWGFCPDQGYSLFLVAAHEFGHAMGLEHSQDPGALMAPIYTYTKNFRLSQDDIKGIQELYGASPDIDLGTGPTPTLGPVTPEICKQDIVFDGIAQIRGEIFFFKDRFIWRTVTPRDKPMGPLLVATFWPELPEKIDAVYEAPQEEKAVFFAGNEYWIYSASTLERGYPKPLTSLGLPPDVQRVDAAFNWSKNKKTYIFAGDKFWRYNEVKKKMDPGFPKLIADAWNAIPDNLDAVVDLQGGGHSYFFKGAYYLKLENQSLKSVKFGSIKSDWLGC
T1 sequence (P78536 whole entry, the tested form may be a part): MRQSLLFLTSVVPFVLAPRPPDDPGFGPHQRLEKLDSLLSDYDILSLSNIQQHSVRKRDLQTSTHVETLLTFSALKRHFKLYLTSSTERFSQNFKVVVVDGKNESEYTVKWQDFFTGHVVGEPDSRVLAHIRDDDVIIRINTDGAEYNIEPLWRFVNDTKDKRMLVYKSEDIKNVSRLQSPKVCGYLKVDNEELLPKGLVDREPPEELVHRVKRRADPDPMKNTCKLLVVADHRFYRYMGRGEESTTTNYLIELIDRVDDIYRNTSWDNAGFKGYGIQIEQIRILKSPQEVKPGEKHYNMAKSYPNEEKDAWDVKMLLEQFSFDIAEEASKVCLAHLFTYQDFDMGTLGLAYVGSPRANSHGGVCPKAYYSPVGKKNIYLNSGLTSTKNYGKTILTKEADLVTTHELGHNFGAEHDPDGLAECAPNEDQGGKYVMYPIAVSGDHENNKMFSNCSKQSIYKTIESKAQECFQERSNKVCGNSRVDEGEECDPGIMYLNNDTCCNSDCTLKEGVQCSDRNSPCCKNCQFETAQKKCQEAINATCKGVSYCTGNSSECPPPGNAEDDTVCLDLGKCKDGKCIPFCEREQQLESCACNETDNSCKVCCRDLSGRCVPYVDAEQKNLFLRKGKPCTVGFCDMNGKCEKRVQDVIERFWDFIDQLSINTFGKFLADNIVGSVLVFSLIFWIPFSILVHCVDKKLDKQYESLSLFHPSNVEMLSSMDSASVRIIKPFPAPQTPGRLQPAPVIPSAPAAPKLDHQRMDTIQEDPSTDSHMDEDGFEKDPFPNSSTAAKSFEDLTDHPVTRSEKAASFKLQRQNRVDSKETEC
Chain of Stromelysin-1 (P08254 whole entry): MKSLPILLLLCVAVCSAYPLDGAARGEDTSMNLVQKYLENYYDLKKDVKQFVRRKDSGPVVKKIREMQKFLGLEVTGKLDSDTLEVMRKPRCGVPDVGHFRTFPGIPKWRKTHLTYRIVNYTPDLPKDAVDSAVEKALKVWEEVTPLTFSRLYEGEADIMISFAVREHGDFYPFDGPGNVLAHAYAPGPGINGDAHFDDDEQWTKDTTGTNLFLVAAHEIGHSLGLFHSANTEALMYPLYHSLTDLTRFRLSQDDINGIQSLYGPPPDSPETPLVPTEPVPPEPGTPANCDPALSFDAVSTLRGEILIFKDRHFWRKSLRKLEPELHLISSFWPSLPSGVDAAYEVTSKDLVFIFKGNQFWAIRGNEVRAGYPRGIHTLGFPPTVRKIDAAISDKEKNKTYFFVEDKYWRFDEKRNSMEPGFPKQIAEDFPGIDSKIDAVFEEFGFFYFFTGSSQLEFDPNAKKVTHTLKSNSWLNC

On to `CC#CCOc1ccc(S(=O)(=O)CC2(C(=O)NO)CCN(c3nc4ccccc4n3C)CC2)cc1`, for which the IC50 (commonly the concentration that inhibits the measured activity by half) was less than 1 nM in assay [1], 176 nM in assay [2] and 166 nM on Collagenase 3.
On the same counts, the results for `CC#CCOc1ccc(S(=O)(=O)CC2(C(=O)NO)CCN(S(=O)(=O)C3CCCCC3)CC2)cc1` are 2.8 nM, 4 nM and 24.4 nM.
Consider `CC#CCOc1ccc(S(=O)(=O)CC2(C(=O)NO)CCN(S(=O)(=O)c3cc(Cl)sc3Cl)CC2)cc1`, for which the figures for the IC50 (in assay [1]; in assay [2]; on Collagenase 3) were less than 1 nM, 22 nM and 23 nM, respectively.
Take `Cc1cc(COc2ccc(S(=O)(=O)CC(CC3CCN(C(C)(C)C)CC3)N(O)C=O)cc2)c2ccccc2n1` (stereo unspecified): the half-inhibitory concentration (IC50) in assay [1] turned out to be 12 nM; in assay [2], 5000 nM; against Stromelysin-1, 1500 nM; in assay [3] it was 90000 nM; against Collagenase 3 it was 4000 nM.
As to `CC#CCOc1ccc(S(=O)(=O)CC2(C(=O)NO)CCN(S(=O)(=O)N3CCCC3)CC2)cc1`, the IC50 was determined as 1 nM in assay [1], 31 nM in assay [2] and 117 nM on Collagenase 3.
Turning to `CC#CCOc1ccc(S(=O)(=O)CC2(C(=O)NO)CCN(S(=O)(=O)C(C)CN3CCOCC3)CC2)cc1` (stereo unspecified), the half-inhibitory concentration (IC50) in assay [1] stood at 1.4 nM; in assay [2] it was 37 nM; on Collagenase 3, 130 nM.
`CC#CCOc1ccc(S(=O)(=O)CC2(C(=O)NO)CCN(S(=O)(=O)N3CCOCC3)CC2)cc1`: the IC50 in assay [1] came out at 1 nM; in assay [2], 51 nM; against Collagenase 3 it was 195 nM.
`CC#CCOc1ccc(S(=O)(=O)CC2(C(=O)NO)CCN(S(=O)(=O)N(C)C)CC2)cc1`: the IC50 worked out at 1.8 nM in assay [1], 61.3 nM in assay [2] and 229 nM at Collagenase 3.
On the same counts, the results for `CC#CCOc1ccc(S(=O)(=O)CC2(C(=O)NO)CCN(S(=O)(=O)N3CCC[C@H]3COC)CC2)cc1` are 1.5 nM, 58 nM and 190 nM.
Regarding `CC#CCOc1ccc(S(=O)(=O)CC2(C(=O)NO)CCN(S(=O)(=O)C3CC3)CC2)cc1`, the IC50 in assay [1] was found to be 1.6 nM; in assay [2] it was 161 nM; on Collagenase 3, 1160 nM.
The like results for `CC#CCOc1ccc(S(=O)(=O)CC2(C(=O)NO)CCN(S(=O)(=O)N3CCCCC3)CC2)cc1` were, in that order, 1.2 nM, 51 nM and 144 nM.
On to `CC#CCOc1ccc(S(=O)(=O)CC2(C(=O)NO)CCN(S(=O)(=O)C(C)(C)C)CC2)cc1`, for which the half-inhibitory concentration (IC50) in assay [1] was less than 1 nM; in assay [2] it was 73 nM; against Collagenase 3, 238 nM.
Take `CC#CCOc1ccc(S(=O)(=O)CC2(C(=O)NO)CCN(S(=O)(=O)c3nc(C)sc3C)CC2)cc1`: the values for the IC50 (in assay [1]; in assay [2]; at Collagenase 3) were less than 1 nM, 32 nM and 38 nM, respectively.
The like results for `CC#CCOc1ccc(S(=O)(=O)CC2(C(=O)NO)CCN(S(=O)(=O)C(CC)CC)CC2)cc1` were, in that order, 1.2 nM, 58 nM and 136 nM.
In the case of `CC#CCOc1ccc(S(=O)(=O)CC2(C(=O)NO)CCN(c3nc4ccccc4o3)CC2)cc1`, the values for the IC50 (in assay [1]; in assay [2]; against Collagenase 3) were 1.1 nM, 40 nM and 56 nM, respectively.
Consider `CC#CCOc1ccc(S(=O)(=O)CC2(C(=O)NO)CCN(C(=O)c3ccncc3)CC2)cc1`, for which the results for the IC50 (in assay [1]; in assay [4]; against Collagenase 3) were 2.6 nM, 583 nM and 21.5 nM, respectively.
For `CC#CCOc1ccc(S(=O)(=O)CC2(C(=O)NO)CCN(c3ccncc3)CC2)cc1`, the values for the IC50 (in assay [1]; in assay [2]; on Collagenase 3) were 5.6 nM, 2060 nM and 2040 nM, respectively.
`CC#CCOc1ccc(S(=O)(=O)CC2(C(=O)NO)CCN(S(=O)(=O)CC3CCCCC3)CC2)cc1`: the half-inhibitory concentration (IC50) in assay [1] is less than 1 nM; in assay [2] it was 11 nM; against Collagenase 3, 72 nM.
On to `CC#CCOc1ccc(S(=O)(=O)CC2(C(=O)NO)CCN(S(=O)(=O)c3ccc(Cl)s3)CC2)cc1`, for which the IC50 in assay [1] stood at 7 nM; in assay [2], 33 nM.
Consider `CC#CCOc1ccc(S(=O)(=O)CC2(C(=O)NO)CCN(S(=O)(=O)c3cn(C)c(C)n3)CC2)cc1`, for which the IC50 in assay [1] is 3 nM; in assay [2], 19 nM; against Collagenase 3, 147 nM.
Take `CC#CCOc1ccc(S(=O)(=O)N2CCSC(C)(C)C2C(=O)NO)cc1` (stereo unspecified): the half-inhibitory concentration (IC50) was determined as 9 nM in assay [1] and 201 nM on Interstitial collagenase.
Consider `CC#CCOc1ccc(S(=O)(=O)CC2(C(=O)NO)CCN(S(=O)(=O)N3CCC[C@@H]3CO)CC2)cc1`, for which the values for the IC50 (in assay [1]; in assay [2]; on Collagenase 3) were 1.4 nM, 172 nM and 354 nM, respectively.
For the compound `CC#CCOc1ccc(S(=O)(=O)CC2(C(=O)NO)CCN(C(=O)c3c(Cl)cncc3Cl)CC2)cc1`, the IC50 is 1.7 nM in assay [1], 183 nM in assay [2], 449 nM on Collagenase 3 and 1300 nM in assay [5].
In the case of `CC#CCOc1ccc(S(=O)(=O)CC2(C(=O)NO)CCN(S(=O)(=O)CCN3CCOCC3)CC2)cc1`, the figures for the half-maximal inhibitory concentration (IC50) (in assay [1]; in assay [2]; on Collagenase 3) were 2.2 nM, 37 nM and 43 nM, respectively.
`CC#CCOc1ccc(S(=O)(=O)CC2(C(=O)NO)CCN(S(=O)(=O)c3c(C)noc3C)CC2)cc1`: the results for the IC50 (in assay [2]; in assay [4]; at Collagenase 3) were 664 nM, 24000 nM and 2280 nM, respectively.
For `CC#CCOc1ccc(S(=O)(=O)CC2(C(=O)NO)CCN(S(=O)(=O)c3c(C)nn(C)c3C)CC2)cc1`, the values for the IC50 (in assay [1]; in assay [2]; against Collagenase 3) were less than 1 nM, 99.5 nM and 385 nM, respectively.
On the same counts, the results for `CC#CCOc1ccc(S(=O)(=O)CC2(C(=O)NO)CCN(S(=O)(=O)Cc3ccncc3)CC2)cc1` are 2 nM, 82 nM and 295 nM.
`CC#CCOc1ccc(S(=O)(=O)CC2(C(=O)NO)CCN(c3ccccn3)CC2)cc1`: the results for the 50% inhibitory concentration (IC50) (in assay [1]; in assay [2]; on Collagenase 3) were 1.33 nM, 62.6 nM and 205 nM, respectively.
In the case of `CC#CCOc1ccc(S(=O)(=O)CC2(C(=O)NO)CCN(Cc3c(Cl)cncc3Cl)CC2)cc1`, the IC50 against Interstitial collagenase was 2680 nM; in assay [2] it was 555 nM; in assay [3], 920 nM; in assay [4], 14800 nM; against Collagenase 3 it was 259 nM.
With `CC#CCOc1ccc(S(=O)(=O)CC2(C(=O)NO)CCN(S(=O)(=O)C3CCCC3)CC2)cc1`, the results for the IC50 (in assay [1]; in assay [2]; at Collagenase 3) were 1.3 nM, 54 nM and 155 nM, respectively.
With `CC#CCOc1ccc(S(=O)(=O)CC2(C(=O)NO)CCN(S(=O)(=O)N3CCN(C(C)=O)CC3)CC2)cc1`, the 50% inhibitory concentration (IC50) in assay [1] is 1.5 nM; in assay [2], 20 nM; against Collagenase 3, 104 nM.
Turning to `Cc1cc(COc2ccc([C@]3(C)CCN([C@H](C)C(=O)NO)C3=O)cc2)c2ccccc2n1`, the IC50 against Interstitial collagenase was 30000 nM; in assay [2], 2050 nM; at Stromelysin-1, 141 nM; in assay [3], 10300 nM; against Collagenase 3, 1420 nM.
